From patent publication US20190175646A1, “METHODS AND COMPOSITIONS RELATING TO THE TREATMENT OF BENIGN SKIN TUMORS” (THE GENERAL HOSPITAL CORPORATION D/B/A MASSACHUSETTS …, priority 2015, published 2019)

System: SK cells
Test: SK cell viability (Alamar blue absorbance assay)
Type: cell-based, human
Conditions: indicated concentrations, 48 hours
Protocol: FIG. 1 depicts a graph in which SK cells were treated with DSF and CuCl2 (indicated concentrations) for 48 hours and relative cellular viability was measured using Alamar blue (absorbance based) assay. A443654 Akt inhibitor was used as a control.
FIG. 2 depicts a graph in which SK cells and normal human keratinocytes were treated with DSF and CuCl2 (indicated concentrations) for 48 hours and relative cellular viability was measured using Alamar blue (absorbance based) assay. A443654 Akt inhibitor was used as a control.
FIG. 4 depicts a graph of SK cell viability after treatment with DSF and/or Cu^2+. A443654 Akt inhibitor was used as a control.
FIG. 5 depicts a graph of SK cell viability after treatment with DSF and/or Zn^2+. A443654 Akt inhibitor was used as a control.
FIGS. 8 and 9 depict graphs of SK cell viability after treatment with pyrithione and/or Cu^2+. A443654 Akt inhibitor was used as a control. Cells from different donors were used for each experiment

## COc1ccc(C2=N[C@@H](c3ccc(Cl)cc3)[C@@H](c3ccc(Cl)cc3)N2C(=O)N2CCNC(=O)C2)c(OC(C)C)c1 [nutlin-3a]
  effect on SK cell viability: impair SK viability
